Experimental data as given in paper PMC5746216, “CYP51 is an essential drug target for the treatment of primary amoebic meningoencephalitis (PAM)” (PLoS Neglected Tropical Diseases, 2017).

Columns and labels:
[1] = molecular target: T1, sterol 14-demethylase (NfCYP51) (Naegleria fowleri, UniProt A0A2H4A2U9); experiment: co-crystal structure at […] Å; UV-vis type II titration; assay type: binding
T1 construct: gene NF0102700; 34 N-terminal membrane anchoring residues replaced with MAKKTSSKGKL
T1 sequence (A0A2H4A2U9 12-460): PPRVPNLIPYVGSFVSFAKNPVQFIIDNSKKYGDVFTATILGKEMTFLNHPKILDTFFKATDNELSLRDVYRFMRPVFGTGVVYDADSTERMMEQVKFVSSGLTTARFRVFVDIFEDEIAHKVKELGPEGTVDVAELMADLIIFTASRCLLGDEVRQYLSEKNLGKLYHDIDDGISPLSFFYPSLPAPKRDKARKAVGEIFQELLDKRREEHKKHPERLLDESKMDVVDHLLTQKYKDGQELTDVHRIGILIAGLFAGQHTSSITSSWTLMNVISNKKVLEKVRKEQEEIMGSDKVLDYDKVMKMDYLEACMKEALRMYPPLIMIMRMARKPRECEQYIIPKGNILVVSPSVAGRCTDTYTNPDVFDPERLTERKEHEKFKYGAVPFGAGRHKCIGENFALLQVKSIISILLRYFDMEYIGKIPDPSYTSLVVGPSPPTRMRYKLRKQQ

[2] = molecular target: T1, sterol 14-demethylase (NfCYP51); experiment: UV-vis spectral binding titration (type I difference spectrum)

SMILES | co-crystal structure at 2.70 Å; UV-vis type II titration [1] | Kd [2] [nM]
OC(Cn1cncn1)(Cn1cncn1)c1ccc(F)cc1F [Fluconazole] | fluconazole, binds NfCYP51 with affinity roughly an order of magnitude exceeding that of natural substrate, 31-norlanosterol | –
CC(C)=CCC[C@@H](C)[C@H]1CC[C@@]2(C)C3=C(CC[C@]12C)[C@@]1(C)CC[C@H](O)[C@@H](C)[C@@H]1CC3 [compound 14, 31-Norlanosterol] | – | 124 ± 25
